Experimental data: ChEMBL document CHEMBL2074115, “Anthracyclines modulate multidrug resistance protein (MRP) mediated organic anion transport” (Biochim Biophys Acta, 1997)
Counter-ions that a name gives are not always drawn.

How the values were obtained:
Set-up in all cases: scale not given: the % may be the effect or the level left
[1] = target: T1, Multidrug resistance-associated protein 1 (Homo sapiens, UniProt P33527); assay: TP_TRANSPORTER: inhibition of DNP-SG uptake (DNP-SG: 0.01 uM, TLCAS: 10 uM) in membrane vesicles from GLC4/ADR cells; type: functional, cell membranes, Membrane vesicle; conditions: glc-4/adr
[2] = target: T2, Multidrug resistance-associated protein 1 (MRP1) (Homo sapiens, UniProt P33527); assay: TP_TRANSPORTER: inhibition of DNP-SG uptake (DNP-SG: 0.01 uM, Calcein-AM: 10 uM) in membrane vesicles from GLC4/ADR cells; type: functional, cell membranes, GLC-4/ADR, Membrane vesicle; conditions: probe DNP-SG, read-out: Activity
[3] = target: T2, Multidrug resistance-associated protein 1 (MRP1); assay: TP_TRANSPORTER: inhibition of DNP-SG uptake (DNP-SG: 0.01 uM, VP-16: 10 uM) in membrane vesicles from GLC4/ADR cells; type: functional, cell membranes, GLC-4/ADR, Membrane vesicle; conditions: probe DNP-SG, read-out: Activity
[4] = target: T2, Multidrug resistance-associated protein 1 (MRP1); assay: TP_TRANSPORTER: inhibition of DNP-SG uptake (DNP-SG: 0.01 uM, Idarbicin: 10 uM) in membrane vesicles from GLC4/ADR cells; type: functional, cell membranes, GLC-4/ADR, Membrane vesicle; conditions: probe DNP-SG, read-out: Activity
[5] = target: T1, Multidrug resistance-associated protein 1; assay: TP_TRANSPORTER: inhibition of DNP-SG uptake (DNP-SG: 0.01 uM, ICG: 10 uM) in membrane vesicles from GLC4/ADR cells; type: functional, cell membranes, Membrane vesicle; conditions: glc-4/adr
[6] = target: T2, Multidrug resistance-associated protein 1 (MRP1); assay: TP_TRANSPORTER: inhibition of DNP-SG uptake (DNP-SG: 0.01 uM, MTX: 10 uM) in membrane vesicles from GLC4/ADR cells; type: functional, cell membranes, GLC-4/ADR, Membrane vesicle; conditions: probe DNP-SG, read-out: Activity
[7] = target: T2, Multidrug resistance-associated protein 1 (MRP1); assay: TP_TRANSPORTER: inhibition of DNP-SG uptake (DNP-SG: 0.01 uM, Calcein: 500 uM) in membrane vesicles from GLC4/ADR cells; type: functional, cell membranes, GLC-4/ADR, Membrane vesicle; conditions: probe DNP-SG, read-out: Activity
[8] = target: T1, Multidrug resistance-associated protein 1; assay: TP_TRANSPORTER: inhibition of DNP-SG uptake (DNP-SG: 0.01 uM, Taxol: 10 uM) in membrane vesicles from GLC4/ADR cells; type: functional, cell membranes, Membrane vesicle; conditions: glc-4/adr
[9] = target: T2, Multidrug resistance-associated protein 1 (MRP1); assay: TP_TRANSPORTER: inhibition of DNP-SG uptake (DNP-SG: 0.01 uM, TCAS: 10 uM) in membrane vesicles from GLC4/ADR cells; type: functional, cell membranes, GLC-4/ADR, Membrane vesicle; conditions: probe DNP-SG, read-out: Activity
[10] = target: T2, Multidrug resistance-associated protein 1 (MRP1); assay: TP_TRANSPORTER: inhibition of DNP-SG uptake (DNP-SG: 0.01 uM, TLC: 10 uM) in membrane vesicles from GLC4/ADR cells; type: functional, cell membranes, GLC-4/ADR, Membrane vesicle; conditions: probe DNP-SG, read-out: Activity

T1 sequence (P33527 whole entry): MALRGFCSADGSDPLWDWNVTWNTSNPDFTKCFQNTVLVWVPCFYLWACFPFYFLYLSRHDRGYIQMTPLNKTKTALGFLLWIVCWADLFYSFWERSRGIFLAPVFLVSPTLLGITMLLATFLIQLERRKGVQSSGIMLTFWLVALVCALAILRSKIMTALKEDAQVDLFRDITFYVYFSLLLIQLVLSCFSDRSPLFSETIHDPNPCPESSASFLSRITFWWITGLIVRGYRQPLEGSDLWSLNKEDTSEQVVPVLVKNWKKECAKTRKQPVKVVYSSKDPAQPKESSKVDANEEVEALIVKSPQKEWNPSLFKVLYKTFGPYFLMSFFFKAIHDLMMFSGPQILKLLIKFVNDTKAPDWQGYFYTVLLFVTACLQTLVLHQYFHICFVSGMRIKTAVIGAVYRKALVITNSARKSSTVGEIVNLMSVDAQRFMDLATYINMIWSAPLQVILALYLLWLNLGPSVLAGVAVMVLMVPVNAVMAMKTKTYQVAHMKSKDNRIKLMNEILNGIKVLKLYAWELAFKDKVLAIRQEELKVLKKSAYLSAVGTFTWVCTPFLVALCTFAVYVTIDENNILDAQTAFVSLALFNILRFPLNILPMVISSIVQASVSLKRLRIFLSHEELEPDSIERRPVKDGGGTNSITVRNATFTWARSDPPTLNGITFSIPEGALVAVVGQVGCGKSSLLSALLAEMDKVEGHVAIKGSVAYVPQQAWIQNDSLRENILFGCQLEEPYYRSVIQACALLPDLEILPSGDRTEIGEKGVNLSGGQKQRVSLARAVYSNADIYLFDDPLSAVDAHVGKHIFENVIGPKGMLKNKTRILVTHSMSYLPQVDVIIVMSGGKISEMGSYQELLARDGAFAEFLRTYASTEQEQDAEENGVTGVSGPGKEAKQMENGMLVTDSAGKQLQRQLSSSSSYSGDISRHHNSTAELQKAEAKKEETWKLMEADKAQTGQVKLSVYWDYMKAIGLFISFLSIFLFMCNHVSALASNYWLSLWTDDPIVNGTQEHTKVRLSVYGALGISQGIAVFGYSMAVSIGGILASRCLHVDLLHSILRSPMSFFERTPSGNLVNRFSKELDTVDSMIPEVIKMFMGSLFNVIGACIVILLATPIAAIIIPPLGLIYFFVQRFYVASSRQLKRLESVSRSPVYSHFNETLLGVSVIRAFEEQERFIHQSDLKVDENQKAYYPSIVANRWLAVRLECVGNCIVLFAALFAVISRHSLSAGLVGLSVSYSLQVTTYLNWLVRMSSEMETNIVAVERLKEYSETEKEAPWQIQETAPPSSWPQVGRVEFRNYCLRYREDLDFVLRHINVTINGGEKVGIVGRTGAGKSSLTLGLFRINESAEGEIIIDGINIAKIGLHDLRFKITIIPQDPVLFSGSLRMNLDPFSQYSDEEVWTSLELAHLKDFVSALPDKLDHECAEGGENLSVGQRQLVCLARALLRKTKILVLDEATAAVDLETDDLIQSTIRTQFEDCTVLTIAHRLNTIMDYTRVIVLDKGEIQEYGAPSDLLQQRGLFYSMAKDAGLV
T2 sequence (P33527 whole entry): as above

Structure (SMILES): C[C@H](CCC(=O)NCCS(=O)(=O)O)C1CC[C@H]2[C@@H]3CC[C@@H]4C[C@H](OS(=O)(=O)O)CC[C@]4(C)[C@H]3CC[C@]12C (stereo not given in full)
- Activity [1]: 11%

Structure (SMILES): CC(=O)OCOC(=O)CN(CC(=O)OCOC(C)=O)Cc1c(OC(C)=O)ccc2c1Oc1c(ccc(OC(C)=O)c1CN(CC(=O)OCOC(C)=O)CC(=O)OCOC(C)=O)C21OC(=O)c2ccccc21
- activity at 10 µM [2]: 44%

Structure (SMILES): COc1cc([C@@H]2c3cc4c(cc3[C@@H](O[C@@H]3O[C@@H]5CO[C@@H](C)O[C@H]5[C@H](O)[C@H]3O)[C@H]3COC(=O)[C@H]23)OCO4)cc(OC)c1O [ETOPOSIDE]
- activity at 10 µM [3]: 50%

Structure (SMILES): CC(=O)[C@]1(O)Cc2c(O)c3c(c(O)c2[C@@H](O[C@H]2C[C@H](N)[C@H](O)[C@H](C)O2)C1)C(=O)c1ccccc1C3=O [IDARUBICIN]
- activity at 10 µM [4]: 52%

Structure (SMILES): CC1(C)C(/C=C/C=C/C=C/C=C2/N(CCCCS(=O)(=O)[O-])c3ccc4ccccc4c3C2(C)C)=[N+](CCCCS(=O)(=O)[O-])c2ccc3ccccc3c21.[Na+] [INDOCYANINE GREEN]
- Activity [5]: 34%

Structure (SMILES): CN(Cc1cnc2nc(N)nc(N)c2n1)c1ccc(C(=O)N[C@@H](CCC(=O)O)C(=O)O)cc1 [METHOTREXATE]
- activity at 10 µM [6]: 82%

Structure (SMILES): O=C(O)CN(CC(=O)O)Cc1cc2c(cc1O)Oc1cc(O)c(CN(CC(=O)O)CC(=O)O)cc1C21OC(=O)c2ccccc21 [OFTASCEINE]
- activity at 500 µM [7]: 40%

Structure (SMILES): CC(=O)O[C@H]1C(=O)[C@@]2(C)[C@H]([C@H](OC(=O)c3ccccc3)[C@]3(O)C[C@H](OC(=O)[C@H](O)[C@@H](NC(=O)c4ccccc4)c4ccccc4)C(C)=C1C3(C)C)[C@]1(OC(C)=O)CO[C@@H]1C[C@@H]2O [PACLITAXEL]
- Activity [8]: 66%

Structure (SMILES): C[C@H](CCC(=O)NCCS(=O)(=O)O)C1CC[C@H]2[C@@H]3[C@H](O)C[C@@H]4C[C@H](OS(=O)(=O)O)CC[C@]4(C)[C@H]3C[C@H](O)[C@]12C (stereo not given in full) [TAUROCHOLATE SULFATE]
- activity at 10 µM [9]: 76%

Structure (SMILES): C[C@H](CCC(=O)NCCS(=O)(=O)O)[C@H]1CC[C@H]2[C@@H]3CC[C@@H]4C[C@H](O)CC[C@]4(C)[C@H]3CC[C@]12C [TAUROLITHOCHOLIC ACID]
- activity at 10 µM [10]: 56%
